Target: T1, SiE5′NT (Serendipita indica, UniProt G4T774)
T1 construct: gene PIIN_01005; untagged full-length with signal peptide and predicted GPI anchor, 35S promoter, expressed in Arabidopsis thaliana (line 303 1L3); detergent-solubilised membrane protein preparation
T1 sequence (G4T774 20-579): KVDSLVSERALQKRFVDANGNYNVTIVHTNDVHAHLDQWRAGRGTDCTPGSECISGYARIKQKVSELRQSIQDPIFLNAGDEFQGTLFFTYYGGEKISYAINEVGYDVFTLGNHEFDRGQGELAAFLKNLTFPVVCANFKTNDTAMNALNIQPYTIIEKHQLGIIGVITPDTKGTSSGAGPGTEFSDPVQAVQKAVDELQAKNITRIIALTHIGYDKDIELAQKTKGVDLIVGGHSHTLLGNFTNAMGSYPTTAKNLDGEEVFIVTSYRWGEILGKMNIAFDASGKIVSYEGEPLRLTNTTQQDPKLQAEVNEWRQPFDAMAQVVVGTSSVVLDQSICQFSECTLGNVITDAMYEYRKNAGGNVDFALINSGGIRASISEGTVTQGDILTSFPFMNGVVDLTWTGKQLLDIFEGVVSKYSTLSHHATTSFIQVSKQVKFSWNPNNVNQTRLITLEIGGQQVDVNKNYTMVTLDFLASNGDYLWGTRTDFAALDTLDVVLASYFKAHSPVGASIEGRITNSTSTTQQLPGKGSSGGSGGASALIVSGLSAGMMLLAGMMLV
Test: phosphate release (EnzChek phosphate assay), membrane protein preparation of transgenic A. thaliana versus mCherry control line
Assay type: biochemical
Settings: 100 μM substrate, 10 mM Tris/MES, 2 mM MgCl2, 30 mM KCl, pH 6.5

Row | Structure (SMILES) | phosphate release (EnzChek phosphate assay), membrane protein preparation of tra
1 | Nc1ncnc2c1ncn2[C@@H]1O[C@H](COP(=O)(O)O)[C@@H](O)[C@H]1O [AMP] | production of a membrane‐localized enzyme capable of hydrolyzing ATP, ADP, and AMP
2 | Nc1ncnc2c1ncn2[C@@H]1O[C@H](COP(=O)(O)OP(=O)(O)OP(=O)(O)O)[C@@H](O)[C@H]1O [ATP] | production of a membrane‐localized enzyme capable of hydrolyzing ATP, ADP, and AMP

— publication PMC6362346, “Serendipita indica E5′NT modulates extracellular nucleotide levels in the plant apoplast and affects fungal colonization” (EMBO Reports, 2019)
